# Test results from patent publication US11390580B2, “Anti-fungals targeting the synthesis of fungal shingolipids” (THE RESEARCH FOUNDATION FOR THE STATE UNIVERSITY OF NEW YORK, priority 2014, dated 2022).
# “And” between values parts separate entries of the source, which are not always exact repeats. Equal entries are not always repeated. Where two headings read alike, the source gives them in different places.
# How the values were obtained:
# C. neoformans H99 [1] = assay: Comparison studies, intravenous (CNS) cryptococcosis survival; type: in vivo, mice
# Protocol: For survival studies, 4-week old CBA/J female mice (Jackson Laboratory, Bar Harbor, Me.) were used. Total of forty mice were infected by tail vein injection of 200 μL containing 10^5 cells of C. neoformans H99 and were randomly separated into 5 groups (8 mice per group). Treatment started within 2 hours of infection. The treated mice received an intraperitoneal injection of 1.2 mg/kg/day of BHBM, 1, amphotericin B or 10 mg/kg/day of fluconazole in 100 μL final volume of PBS containing 0.4% DMSO. Untreated mice, received 100 μL of PBS/0.4% DMSO. Mice were fed ad-libitum and monitored closely for sign of discomfort and meningitis. Mice showing abnormal gait, lethargy, tremor, significant loss of body weight, or inability to reach water or food were sacrificed and survival was counted until that day.
# Cryptococcus neoformans = assay: In vitro susceptibility testing (MIC); type: cell-based
# [2] = system: synthesis of GlcCer in mammalian (J774) cells; assay: In vivo labeling with 3H palmitate, TLC of GlcCer; type: cell-based, murine; conditions: 3H palmitate labeling
# C. neoformans [3] = assay: In vitro killing assay (time-kill, CFU); type: cell-based, Cryptococcus neoformans
# Protocol: At the illustrated time points, aliquots were taken and diluted and 100 μL was plated onto yeast peptone dextrose (YPD) plates. YPD plates were incubated in a 30° C. incubator and, after 72 hours, colony forming units (CFU) were counted and recorded.
# Solubility = type: physicochemical; conditions: at 1 mg/ml concentration
# C. neoformans H99 [4] = assay: Animal studies for cryptococcosis (intranasal infection); type: in vivo, mice
# A549 cell line = assay: In vitro toxicity; type: cell-based
# L2 cell line = assay: In vitro toxicity; type: cell-based
# Candida albicans SC-5314 = assay: Animal studies for candidiasis (intravenous infection); type: in vivo, mice
# Protocol: For survival studies, 8-week old CBA/J female mice (Jackson Laboratory) were used. Eight mice per treatment or control group were used. Mice were infected by intravenous inoculation of 100 μL containing 1×10^5 cells of Candida albicans SC-5314 strain. […] Untreated mice, received 100 μL of PBS/0.4% DMSO. Mice were feed ad-libitum and monitored closely for sign of discomfort. At the end of the survival study, tissue burden culture was performed in mice that survived the infection. Mice were sacrificed and their organs were extracted and homogenized in 10 ml sterile PBS using homogenizer. Organ homogenates were diluted 10 times in PBS, and 100 μL was plated on YPD agar plates and incubated at 30° C. for 72 hours for CFU count.
# [5] = system: C. neoformans sphingolipids; assay: Sphingolipid levels by TLC and lipid mass spectrometry; type: cell-based, Cryptococcus neoformans; conditions: TLC, confirmed by mass spectrometry
# Protocol: Labeling fungal cells. […] Samples without drug were included as control. Before lipid extraction, lipid internal standards (C17 ceramide and C17 sphingosine) were added. Lipids were then extracted following the methods of […] and Bligh and Dyer and one fourth of the sample was aliquoted for determination of the inorganic phosphate. The remainder of the sample was subjected to base hydrolysis and then analyzed using LC/MS. Results were normalized with the inorganic phosphate levels.
# Candida spp = assay: In vitro susceptibility testing; type: cell-based; conditions: most Candida spp examined
# P. murina [6] = system: P. murina
# P. murina [7] = system: P. murina; remark: listed apart in the source
# [8] = In vitro toxicity, MTT assay; conditions: mouse, J774.16 macrophage cells
# [9] = In vivo toxicity in uninfected mice; conditions: treated daily for 60 days
# C. neoformans [10] = assay: Resistance assay, daily passages in sub-MIC drug; conditions: 15 days of passages below the MIC
# [11] = system: synthesis of GlcCer in C. neoformans cells; assay: In vivo labeling with 3H palmitate, TLC of GlcCer; conditions: 3H palmitate labeling
# C. neoformans (H99) = assay: Transmission electron microscopy of treated cells; conditions: 4 μg/mL, 6 hours
# C. neoformans [12] = assay: Synergistic assay (fractional inhibitory index, FIC)
# P. murina [13] = assay: Animal studies for pneumocystosis, CD4-depleted mice; conditions: mouse, in vivo
# Pneumocystis murina = assay: In vitro testing by ATP content (luciferin-luciferase); conditions: read-out: percentage inhibition of ATP
# Pneumocystis jiroveci = assay: as above; conditions: read-out: percentage inhibition of ATP
smiles,measurement,setting,value
C[C@@H]1[C@H](O)[C@@H](C)/C=C/C=C/C=C/C=C/C=C/C=C/C=C/[C@H](O[C@@H]2O[C@H](C)[C@@H](O)[C@H](N)[C@@H]2O)C[C@@H]2O[C@](O)(C[C@@H](O)C[C@@H](O)[C@H](O)CC[C@@H](O)C[C@@H](O)CC(=O)O[C@H]1C)C[C@H](O)[C@H]2C(=O)O [Amphotericin B],average survival,"C. neoformans H99 [1]; IP, 1.2 mg/kg/day BHBM, 1, amphotericin B, 10 mg/kg/day fluconazole",23.5 ± 6.5 days
"O=C(NN=Cc1ccc(O)c(Br)c1)c1cccc(Br)c1 [Compound 1, 3-bromo-N′-(3-bromo-4-hydroxybenzylidene) benzohydrazide]",antifungal activity of derivatives,Cryptococcus neoformans,improved activity
same,MFC,"Cryptococcus neoformans; Cryptococcus neoformans, read-out: MFC (minimum fungicidal concentration)",1.2 µg/mL
same,inhibition of the synthesis of GlcCer,[2],no significant changes
same,inhibition of the synthesis of GlcCer,[2]; listed as #5285729,not in mammalian (J774) cells
same,type of killing,C. neoformans [3]; time-kill assay,time-dependent killing
same,dead cells,C. neoformans [3]; within 24 hours,100%
same,DMSO required,Solubility,50%
same,mice surviving infection,"C. neoformans H99 [4]; 1.2 mg/Kg/day intraperitoneally, up to 60 days",70%
same,fungal burden in brain,"C. neoformans H99 [4]; 1.2 mg/Kg/day, day 60",No C. neoformans cells were found in brains
same,fungal burden in lung,"C. neoformans H99 [4]; 1.2 mg/Kg/day, day 60, compared to infected untreated mice",decrease the fungal burden in the lung
same,brain histology,C. neoformans H99 [4]; day 60,no fungal cells and normal structure
same,lung histology,C. neoformans H99 [4]; day 60,granulomatous response limited in few areas of the lung
same,toxicity,A549 cell line,slight to moderate toxicity
same,toxicity,L2 cell line,slight to moderate toxicity
same,mice alive,"Candida albicans SC-5314; 1.2 mg/kg/day intraperitoneally, after 21 days of infection",75%
same,clearance of infection (tissue burden),"Candida albicans SC-5314; day 21, surviving treated mice",able to clear C. albicans infection
same,sphingosine level,[5],accumulation of sphingosines
same,in vitro susceptibility,Candida spp,resistant
same,toxicity in mice immunosuppressed with corticosteroids,P. murina [6],some toxicity
same,asci and troph burdens vs vehicle,P. murina [6]; 1.25 mg/kg/day and 12.5 mg/kg/day for 14 days,significantly reduced
same,survival vs control steroid negative controls,"P. murina [6]; 1.25 and 12.5 mg/kg/day, 14 days",did not increase survival
same,survival,P. murina [7]; 14 days of treatment,improved survival
same,number of asci in the lung,P. murina [7]; day 14,significantly decreased
same,EC50 at 48 h,[8],50 µg/mL
same,"appearance, weight, physical activity and behavior",[9],appeared normal
same,development of resistance,C. neoformans [10],do not develop resistance
same,inhibition of the synthesis of GlcCer,[11],significantly inhibit the synthesis of GlcCer
same,number of vacuoles per μm^2 of cell surface area,C. neoformans (H99),0.93±0.54
same,FIC index,C. neoformans [12]; combined with Amphotericin B,0.77
same,FIC index,C. neoformans [12]; combined with Fluconazole,0.47
same,interaction,C. neoformans [12]; combined with Tunicamycin,additive
same,FIC index,C. neoformans [12]; combined with caspofungin,1
same,signs of toxicity,P. murina [13],no signs of toxicity
"N=C(N)c1ccc(OCCCCCOc2ccc(C(=N)N)cc2)cc1 [Pentamidine, reference compound]",inhibition at 1 µg/mL,Pneumocystis murina; 24 h,78.2%
same,inhibition at 1 µg/mL,Pneumocystis murina; 48 h,80.3%
same,inhibition at 1 µg/mL,Pneumocystis murina; 72 h,74.1%
same,inhibition at 1 µg/mL,Pneumocystis murina; 96 h,27.8%
same,inhibition at 1 µg/mL,Pneumocystis jiroveci; 24 h,45.7%
same,inhibition at 1 µg/mL,Pneumocystis jiroveci; 48 h,86.5%
same,inhibition at 1 µg/mL,Pneumocystis jiroveci; 72 h,84.2%
same,inhibition at 1 µg/mL,Pneumocystis jiroveci; 96 h,81.4%
OC(Cn1cncn1)(Cn1cncn1)c1ccc(F)cc1F [fluconazole],average survival,"C. neoformans H99 [1]; mouse, in vivo",10 ± 2 days and 10.0 ± 2.0 days
